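Dose response: 5 concentrations. Exposure: 48 h. Format: 96-well plates. Endpoint: linear interpolation; highest concentration if not reached. At the GI50, growth is halved. TGI denotes the concentration required for complete inhibition of growth.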
How the values were obtained:
Assay in all cases: growth of human tumour cells (NCI), 48 h
[1] = test system: MCF7 breast
[2] = test system: DU-145 prostate
[3] = test system: MDA-N
[4] = test system: SR leukemia
[5] = test system: OVCAR-4 ovarian
[6] = test system: ACHN renal
[7] = test system: HCT-116 colon
[8] = test system: NCI-H226 lung
[9] = test system: OVCAR-8 ovarian

NC(N)=NCCCC(NC(=O)OCCCCn1ccc(N)nc1=O)C(=O)O (stereo unspecified)
TGI [1]: > 100 µM
TGI [2]: > 100 µM
TGI [3]: > 100 µM
TGI [4]: > 100 µM
TGI [5]: > 100 µM
TGI [6]: > 100 µM
TGI [7]: > 100 µM
TGI [8]: > 100 µM

O=c1[nH]c(=S)c2cc3c(=S)[nH]c(=O)n(CCO)c3nc2n1CCO
TGI [1]: > 100 µM
TGI [9]: > 100 µM
TGI [3]: > 100 µM
TGI [4]: > 100 µM
TGI [5]: > 100 µM
TGI [6]: > 100 µM
TGI [7]: > 100 µM
TGI [8]: > 100 µM

COc1cc(Br)c(CC2C3=C(CCN2C(=O)C2CCC2)CC(=O)CC3)cc1O (stereo unspecified)
TGI [2]: > 100 µM
TGI [9]: > 100 µM
TGI [3]: 45 µM
TGI [4]: > 100 µM
TGI [6]: 86.9 µM
TGI [7]: > 100 µM
TGI [8]: > 100 µM

COc1ccc(-c2nn(-c3ccc(NC(=O)Nc4ccc(Cl)c(C(F)(F)F)c4)cc3)cc2-c2ccncc2)cc1Cl
GI50 [1]: 1.7 µM
TGI [1]: 4.54 µM
GI50 [2]: 3.07 µM
TGI [2]: 20.6 µM
GI50 [9]: 2.02 µM
TGI [9]: 20.7 µM
GI50 [4]: 1.86 µM
TGI [4]: 5.96 µM
GI50 [5]: 1.98 µM
TGI [5]: 21.9 µM
GI50 [6]: 1.6 µM
TGI [6]: 5.27 µM
GI50 [7]: 1.1 µM
TGI [7]: 2.69 µM
GI50 [8]: 2.59 µM
TGI [8]: 8.78 µM

Cn1c(O)c(C=Nc2ccccc2Cl)c(=O)n(C)c1=O
TGI [1]: > 100 µM
TGI [9]: > 100 µM
TGI [3]: > 100 µM
TGI [4]: 55.9 µM
TGI [5]: 98.6 µM
TGI [6]: 92.2 µM
TGI [7]: 35.5 µM
TGI [8]: > 100 µM

O=c1ccc2nc(-c3ccccn3)nn(-c3ccccc3)c-2c1
GI50 [1]: 0.783 µM
TGI [1]: 4.71 µM
GI50 [2]: 3.77 µM
TGI [2]: 11.1 µM
GI50 [9]: 3.1 µM
TGI [9]: > 100 µM
GI50 [4]: 2.31 µM
TGI [4]: > 100 µM
GI50 [5]: 1.56 µM
TGI [5]: 3.04 µM
GI50 [6]: 1.59 µM
TGI [6]: 2.99 µM
GI50 [7]: 1.77 µM
TGI [7]: 3.42 µM
GI50 [8]: 3.2 µM
TGI [8]: 11.9 µM

O=C(CSc1nc2ccccc2c(=O)n1-c1ccccc1)N=Nc1c(O)[nH]c2ccc(F)cc12
TGI [1]: 4.3 µM
TGI [2]: 4.17 µM
TGI [3]: 14 µM
TGI [4]: 4.21 µM
TGI [5]: 4.34 µM
TGI [7]: 4.46 µM

CCN1CCC(O)(/C=C/c2ccc(OC)cc2)C(C(=O)/C=C/c2ccc(OC)cc2)C1 (stereo unspecified)
TGI [1]: 10.7 µM
TGI [2]: 22.8 µM
TGI [4]: 26.4 µM
TGI [5]: 26.7 µM
TGI [6]: 26.6 µM
TGI [7]: 14.7 µM
TGI [8]: 29.7 µM

COc1cc(CS(=O)c2ccc(O)cc2)cc(OC)c1OC (stereo unspecified)
TGI [1]: > 100 µM
TGI [2]: > 100 µM
TGI [9]: > 100 µM
TGI [3]: > 100 µM
TGI [4]: > 100 µM
TGI [6]: > 100 µM
TGI [7]: > 100 µM
TGI [8]: > 100 µM

O=C(O)C(=O)/C=C(\O)c1ccc(Br)cc1
TGI [1]: > 100 µM
TGI [2]: > 100 µM
TGI [9]: > 100 µM
TGI [3]: > 100 µM
TGI [5]: > 100 µM
TGI [6]: > 100 µM
TGI [7]: > 100 µM
TGI [8]: > 100 µM

CN(Cc1cc(Cl)c(Cl)cc1NC(=O)CN)[C@H]1CCCC[C@@H]1N1CCCC1
TGI [1]: > 100 µM
TGI [9]: > 100 µM
TGI [3]: 31.4 µM
TGI [4]: 49.9 µM
TGI [5]: > 100 µM
TGI [6]: > 100 µM
TGI [7]: 45.2 µM
TGI [8]: > 100 µM

Cc1ccc(-n2cc([Si](C)(C)C)nn2)s1
TGI [1]: > 100 µM
TGI [2]: > 100 µM
TGI [9]: > 100 µM
TGI [3]: > 100 µM
TGI [5]: > 100 µM
TGI [6]: > 100 µM
TGI [7]: > 100 µM
TGI [8]: > 100 µM

CC1=NN(c2nc(N)nc(CF)n2)C(C)(C)C1
TGI [1]: > 100 µM
TGI [2]: > 100 µM
TGI [9]: > 100 µM
TGI [4]: > 100 µM
TGI [5]: > 100 µM
TGI [6]: > 100 µM
TGI [7]: > 100 µM
TGI [8]: > 100 µM

Cc1nc2ccccc2c(/C=C/c2ccc(Cl)cc2)c1C(=O)/C=C/c1ccccc1
GI50 [6]: 1.53 µM
TGI [6]: 2.86 µM
GI50 [8]: 1.58 µM
TGI [8]: 3.22 µM

CC(=O)Nc1ccccc1NC1CC(C)N(c2ccccc2)N1C(C)=O (stereo unspecified)
TGI [1]: > 10 µM
TGI [2]: > 10 µM
TGI [9]: > 10 µM
TGI [3]: > 10 µM
TGI [4]: > 10 µM
TGI [5]: > 10 µM

CCOC(=O)C(NC(=O)OC(C)(C)C)C(=O)OCC
TGI [1]: > 100 µM
TGI [2]: > 100 µM
TGI [9]: > 100 µM
TGI [4]: > 100 µM
TGI [5]: > 100 µM
TGI [6]: > 100 µM
TGI [7]: > 100 µM

NCCCNCCCCN1CC1
TGI [1]: > 100 µM
TGI [2]: 6.17 µM
TGI [3]: > 100 µM
TGI [5]: 1.53 µM
TGI [7]: > 100 µM
TGI [8]: > 20.9 µM

Fc1cc(-c2cc(-c3ccc4c(c3)OCO4)n[nH]2)c(Cl)cc1Cl
TGI [2]: 13 µM
TGI [9]: 3.41 µM
TGI [4]: > 50.1 µM
TGI [5]: 4.49 µM
TGI [6]: 3.86 µM
TGI [7]: 4.17 µM
TGI [8]: 5.7 µM

CC1=C(C)C(=O)C(C2=CC(=O)C=CC2=O)=C(C2=CC(=O)C=CC2=O)C1=O
TGI [1]: > 81.4 µM
TGI [2]: > 100 µM
TGI [9]: > 87.7 µM
TGI [3]: > 59.3 µM
TGI [5]: 51.3 µM
TGI [6]: > 100 µM
TGI [7]: > 79.2 µM
TGI [8]: > 100 µM

Oc1ccc(Cl)cc1C1=NC(/N=C\c2ccccc2)=NC(c2ccccc2)C1 (stereo unspecified)
TGI [1]: > 100 µM
TGI [2]: > 100 µM
TGI [9]: > 100 µM
TGI [4]: 45 µM
TGI [7]: > 100 µM
TGI [8]: > 100 µM

C[N+](C)(CCNC(=O)c1cccc2cc3ccccc3nc12)Cc1ccc([N+](=O)[O-])s1
TGI [1]: > 25 µM
TGI [2]: > 25 µM
TGI [9]: > 25 µM
TGI [3]: > 25 µM
TGI [6]: > 25 µM
TGI [7]: > 25 µM
TGI [8]: > 25 µM

C=CCn1c(-c2ccc([N+](=O)[O-])cc2)csc1=N
TGI [1]: > 100 µM
TGI [2]: > 100 µM
TGI [9]: > 100 µM
TGI [3]: > 100 µM
TGI [5]: > 100 µM
TGI [6]: > 100 µM
TGI [7]: > 100 µM
TGI [8]: > 100 µM

COC(=O)C1=C(C(=O)OC)SC2(S1)C(C(=O)OC)=C(C(=O)OC)Sc1c2ssc1=NC(C)(C)C
TGI [1]: 3.22 µM
TGI [2]: 2.17 µM
TGI [9]: 3.77 µM
TGI [4]: 1.91 µM
TGI [5]: 3.32 µM
TGI [6]: 3.35 µM
TGI [7]: 2.03 µM
TGI [8]: 12.8 µM

O=C(O)CCC(NC(=O)c1ccc(Nc2nc3cc(C(F)(F)F)ccc3nc2C(=O)O)cc1)C(=O)O (stereo unspecified)
TGI [1]: > 100 µM
TGI [2]: > 100 µM
TGI [9]: > 100 µM
TGI [3]: > 100 µM
TGI [4]: > 100 µM
TGI [6]: > 100 µM
TGI [7]: > 100 µM
TGI [8]: > 100 µM
